Key:
[1] = system: carnitine level in skeletal muscle tissue; assay: Carnitine levels in mouse tissues after i.p. peptide administration (commercial carnitine kit); assay type: in vivo, Male ICR mice
Description: (§1) Male ICR mice were injected i.p. with 250 mg/kg of the DY-65 peptide for 5 consecutive days. Half an hour after the last injection lung, heart, skeletal muscle (femural), brain, liver, kidney and blood were removed, homogenized (100 mg tissue in 200 μl distilled water), centrifuged and filtrated through 30K Microcon® filter. Carnitine analysis was carried out by a commercial kit (BIOVISION™, catalogue number K642-100). n=4 for each group.

[2] = system: carnitine level in other tissues, including liver and kidneys; assay: Carnitine levels in other mouse tissues (lung, heart, brain, liver, kidney, blood) after i.p. peptide administration; assay type: in vivo; details: male ICR mice, 250 mg/kg i.p. for 5 consecutive days, tissues removed half an hour after last injection
Description: as §1

[3] = Toxicity observation in mice treated with the peptide; assay type: in vivo; details: male ICR mice, 250 mg/kg i.p. for 5 consecutive days

| Substance | elevation in the level of carnitine in skeletal muscle tissue ([1]; healthy male ICR mice, 250 mg/kg i.p. for 5 consecutive days, femural skeletal muscle removed half an hour after last injection, p<0.05, n=4) | elevation in carnitine level in other tissues, including liver and kidneys [2] | toxicity effects [3] | increased carnitine levels compared to baseline levels in any of the tissues examined ([1]; experiment of Example 1 repeated, all tissues examined (lung, heart, skeletal muscle, brain, liver, kidney, blood)) |
| --- | --- | --- | --- | --- |
| N-acetyl-Cys-Lys-Met-Cys-NH2 (Ac-CKMC-NH2; cysteine pairing not given here) [DY-65] | about 150% | did not demonstrate a significant elevation in carnitine level | no toxicity effects were observed | – |
| N-acetyl-Cys-Met-Lys-Cys-NH2 (Ac-CMKC-NH2; cysteine pairing not given here) [DY-70, reference compound] | – | – | – | did not result in increased carnitine levels |

From patent publication US9499582B2, “Compositions and methods for increasing carnitine level in muscle tissue” (Oneday—Biotech And Pharma Ltd., priority 2012, dated 2016)
